Consider 13 compounds from patent publication US9012178B2, “Dipeptides to enhance yield and viability from cell cultures” (Amgen Inc., priority 2010, dated 2015).

≈ marks a conversion by molar mass, not a printed value. Where a SMILES comes first, the peptide text is derived from it.

The subject of data set [1] is CHO cell line D. Nature of the data set: 6-day batch culture in serum-free defined production medium: titer and viability. In kind it is cell-based, Chinese hamster. Particulars: 1 to 4 g/L, 6 days batch culture; for titer: over the negative control. The procedure: Materials and Methods: CHO cell line D, which produces a fully human recombinant antibody, was used for this experiment. Cells were inoculated at 2×10^6 cells/mL with a final culture volume of 2.0 mL into serum-free defined production medium. Experimental samples contained the dipeptides His-Glu, Glu-His, His-Ser, and His-Gln from 1 to 4 g/L. Control wells were set up containing either no added dipeptide as a negative control, or containing peptone at 10 g/L as a positive control. The cultures were incubated as a batch culture for 6 days, at which point the cells were harvested and titer and viability determined.

Data set [2] concerns CHO cell line A. Briefly: Fed-batch shake flask production culture in serum-free defined medium: titer and viability. In kind it is cell-based, Chinese hamster. Particulars: culture period 13 to 14 days. The procedure:
(§1) Materials and Methods: Dipeptides were purchased from Bachem (Torrance, Calif.). Each dipeptide was dissolved in water for preparation of concentrated stock solution (100 mg/mL), followed by sterile filtration using Spin-X® filter unit (Corning Inc., Corning, N.Y.).
(§2) On Day 0, prior to inoculation of production cell lines, appropriate volumes of concentrated dipeptide stock solution were added to serum-free defined production medium to bring the final dipeptide concentration at 0.5-2.0 g/L. For controls, the same volume of water was added. Cells were inoculated at 5×10^5 cells/mL with the final culture volume of 50 mL in 250 mL flasks. The shaker flasks cultures were grown in the incubator at 36° C., with 5% CO2 and agitation rate of 160 rpm.
(§3) Cultures were fed with bolus defined feed media on Days 3, 6, and 8 with the feed volume of 5-6% on Day 3, 9% on Day 6 and 9% on Day 8. Cultures were stopped and harvested on Day 11. However, if the culture viability on Day 11 was >70%, culture duration was extended beyond day 11 by introducing 4th feed on Day 11 and 5th feed on day 13 if necessary. Feed volume on Day 11 ranged from 5% to 8%, depending on the culture performance. Day 13 feed ranged from 2.5% to 3.0%. Glucose was fed as needed with typical target concentration of 7-8 g/L.
(§4) On selective days during the production run, small volumes of cultures were taken out to assess viable cell density and % viability using the CEDEX cell counter (Roche Innovatis AG). Titer was also determined on collected samples, using the high-throughput HPLC analytical method.
Materials and Methods: CHO cell line A was cultured as in Example 2. The effect of dipeptide Ala-His (added at 1 g/L) was compared to no added dipeptide (control) and dipeptide His-Gly. The culture period was 13 to 14 days, at which point titer and viability were assessed.

The subject of data set [3] is CHO cell line C. Nature of the data set: Fed-batch shake flask production culture in serum-free defined medium: titer, viability, growth, metabolic profiles. The data set is classed as cell-based, Chinese hamster. Particulars: for day 11 titer: cell line C, culture period 11 days (Example 4, FIG. 5). How it is done:
as §1, §2, §3, §4
Materials and Methods: CHO cell line C was cultured as in Example 2. The dipeptides tested were Tyr-Lys, Thr-Phe, His-Gly, Tyr-Ala, Gly-His, Tyr-His, Tyr-Val, and a combination of Tyr-His and Thr-Phe. The culture period was 11 days, at which point titer and viability were assessed.
Materials and Methods: CHO cell line C was used for this experiment, and cultured as in Example 2. Titer, viability, viable cell density, specific productivity, and cell diameter were determined each day from day 6 to 13 or 14 of cell culture. Tyr-His dipeptide was tested at 0.5 g/L and 1 g/L, and compared to the addition of no dipeptide.

The subject of data set [4] is CHO cells. Nature of the data set: Recombinant protein expression from CHO cells in chemically defined medium (summary statements). The following applies: two different CHO cell lines expressing two different recombinant antibodies. The data set is classed as cell-based, Chinese hamster.
The nature of data set [5]: Solubility of tyrosine-containing dipeptides.
The conditions of data set [6]: reference #1; cited from earlier work.
Setting [7] is: supplement by itself in serum-free, peptone-free production medium.

Turning to His-Ser, in data set [1], the viability entry was “significantly improved” and the titer result is given as “not significantly increased”.

Regarding His-Gly, the viability result in data set [2] (Ala-His added at 1 g/L) is on record as “better at maintaining viability”. Moreover, the “titer improvement as compared to control” value in data set [2] is recorded as “more than 10%”. In addition, the “day 11 titer” value in data set [3] is on record as “moderately improved titer”. Also, the “productivity and culture performance” value in data set [4] was “improve productivity and culture performance”.

Gly-His: the “day 11 titer” value in data set [3] was “adversely affected titer”. In data set [4], the “productivity and culture performance” value is given as “negative effect”.

In the case of Glu-His, in data set [1], the viability result is “significantly improved” and the titer result is “not significantly increased”.

Consider Tyr-Val, for which, in data set [3], the “day 11 titer” value is “significantly improved titer”.

Regarding `CSCC[C@H](N)C(=O)N[C@@H](Cc1ccc(O)cc1)C(=O)O` [Met-Tyr] (H-Met-Tyr-OH; N-terminus and C-terminus assumed), the Solubility tested result in data set [5] is “Not soluble”.

With `NCCCC[C@H](NC(=O)[C@@H](N)Cc1ccc(O)cc1)C(=O)O` [Tyr-Lys] (H-Tyr-Lys-OH; N-terminus and C-terminus assumed), the “Solubility (g/L)- ref. #1” value in data set [6] is on record as 81 g/L (≈ 262 mM). Also, in data set [5], the Solubility tested entry is “readily soluble”.

On to His-Gln, for which, in data set [1], the viability result is reported as “significantly improved” and the titer result was “not significantly increased”.

As to Thr-Phe, the “day 11 titer” value in data set [3] is reported as “little to no effect”. In addition, in data set [3] (setting [7]), the recombinant protein production entry is on record as “little to no effect” and the viability result is “little to no effect”.

Regarding Ala-His, the viability result in data set [2] (Ala-His added at 1 g/L) is given as “maintain increased viability”. For the same compound, in data set [2] (Ala-His added at 1 g/L, vs control), the titer entry is “also improved titer, but not as much as His-Gly”.

Take Tyr-Ala: the “day 11 titer” value in data set [3] is listed as “significantly improved titer”.

For the compound His-Glu, in data set [1], the viability entry was “significantly improved” and the titer entry is reported as “not significantly increased”.

As to `N[C@@H](Cc1ccc(O)cc1)C(=O)N[C@@H](Cc1c[nH]cn1)C(=O)O` [Tyr-His] (H-Tyr-His-OH; N-terminus and C-terminus assumed), in data set [6], the “Solubility (g/L)- ref. #1” value is 100 g/L (≈ 314 mM). Besides, the Solubility tested entry in data set [5] is listed as “readily soluble”.
